≈ marks a conversion by molar mass, not a printed value.
Tests used:
Solubility at pH 6.8 = format: physicochemical; conditions: pH 6.8, aqueous buffer, thermodynamic from solid; read-out: solubility
Outline: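 Solubility was measured at pH 6.8 following the cited Zhou et al. (2007) procedure.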

PI3K beta = molecular target: T1, PI3K beta (Homo sapiens, UniProt P42338); experiment: PI3K beta kinase assay (Kinase-Glo luminescence); format: biochemical
T1 construct: for the full-length p110-b subunit are generated and fused by overlapping PCR; p85(iSH2) fusion partner (see partner chain) (N); His tag (C); made in house; host or cells: baculovirus; Tn5 (Trichoplusia ni) or TiniPro insect cells
Outline: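 p110β full-length/p85 iSH2 construct (BV-949), 25 nM, with 1 μM ATP and 10 μg/mL phosphatidylinositol in 10 mM Tris pH 7.5, 3 mM MgCl2, 50 mM NaCl, 0.05% CHAPS, 1 mM DTT. 60 min at room temperature; ATP remaining read by Kinase-Glo luminescence. IC50 from 8-point four-parameter logistic fit.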

PI3K delta = molecular target: T2, PI3K delta (Homo sapiens, UniProt O00329); experiment: PI3K delta kinase assay (Kinase-Glo luminescence); format: biochemical
T2 construct: for the full-length p110-d subunit are generated and fused by overlapping PCR; p85(iSH2) fusion partner (see partner chain) (N); His tag (C); made in house; host or cells: baculovirus; Tn5 (Trichoplusia ni) or TiniPro insect cells
Outline: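 Construct BV-1060, p85 iSH2–linker–full-length p110δ, His-tagged, at 10 nM, with 1 μM ATP and 10 μg/mL phosphatidylinositol in pH 7.5 Tris, 3 mM MgCl2, 50 mM NaCl, 0.05% CHAPS. Run 60 min at room temperature; remaining ATP read by Kinase-Glo luminescence; IC50 from 4-parameter logistic fit of 8 concentrations.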

PI3K alpha = molecular target: T3, PI3K alpha (Homo sapiens, UniProt P42336); experiment: PI3K alpha kinase assay (Kinase-Glo luminescence); format: biochemical
T3 construct: p85(iSH2) fusion partner (see partner chain) (N); His tag (C); made in house; host or cells: baculovirus; Tn5 (Trichoplusia ni) or TiniPro insect cells
Outline: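 PI3K alpha at 10 nM with 1 μM ATP and 10 μg/mL phosphatidylinositol in 10 mM TRIS pH 7.5, 3 mM MgCl2, 50 mM NaCl, 0.05% CHAPS, 1 mM DTT, 60 min at room temperature. Remaining ATP read by Kinase-Glo luminescence. IC50 by 4-parameter fit over 8 concentrations.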

[1] = system: S6 Ribosomal Protein phosphorylation Ser235/236 in TSC1 null mouse embryo fibroblast (MEF) cells; experiment: Reverse protein array assay, S6 Ribosomal Protein phosphorylation Ser235/236 in TSC1 null MEF cells; format: cell-based; conditions: 1 h, pS6 ribosomal protein Ser235/236, 60 minutes incubation, read-out: p-S6 IC50
Outline: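 TSC1−/− MEFs, seeded and held ≥20 h at 37 °C/5% CO2, were exposed to 8-step serial compound dilutions (0.02% DMSO final; DMSO vehicle control) for 60 min at 37 °C. Cells were then lysed on ice for 10 min and lysates spotted onto reverse protein array chips.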

T2 sequence (O00329 with tags, fused parts or gaps limits assumed): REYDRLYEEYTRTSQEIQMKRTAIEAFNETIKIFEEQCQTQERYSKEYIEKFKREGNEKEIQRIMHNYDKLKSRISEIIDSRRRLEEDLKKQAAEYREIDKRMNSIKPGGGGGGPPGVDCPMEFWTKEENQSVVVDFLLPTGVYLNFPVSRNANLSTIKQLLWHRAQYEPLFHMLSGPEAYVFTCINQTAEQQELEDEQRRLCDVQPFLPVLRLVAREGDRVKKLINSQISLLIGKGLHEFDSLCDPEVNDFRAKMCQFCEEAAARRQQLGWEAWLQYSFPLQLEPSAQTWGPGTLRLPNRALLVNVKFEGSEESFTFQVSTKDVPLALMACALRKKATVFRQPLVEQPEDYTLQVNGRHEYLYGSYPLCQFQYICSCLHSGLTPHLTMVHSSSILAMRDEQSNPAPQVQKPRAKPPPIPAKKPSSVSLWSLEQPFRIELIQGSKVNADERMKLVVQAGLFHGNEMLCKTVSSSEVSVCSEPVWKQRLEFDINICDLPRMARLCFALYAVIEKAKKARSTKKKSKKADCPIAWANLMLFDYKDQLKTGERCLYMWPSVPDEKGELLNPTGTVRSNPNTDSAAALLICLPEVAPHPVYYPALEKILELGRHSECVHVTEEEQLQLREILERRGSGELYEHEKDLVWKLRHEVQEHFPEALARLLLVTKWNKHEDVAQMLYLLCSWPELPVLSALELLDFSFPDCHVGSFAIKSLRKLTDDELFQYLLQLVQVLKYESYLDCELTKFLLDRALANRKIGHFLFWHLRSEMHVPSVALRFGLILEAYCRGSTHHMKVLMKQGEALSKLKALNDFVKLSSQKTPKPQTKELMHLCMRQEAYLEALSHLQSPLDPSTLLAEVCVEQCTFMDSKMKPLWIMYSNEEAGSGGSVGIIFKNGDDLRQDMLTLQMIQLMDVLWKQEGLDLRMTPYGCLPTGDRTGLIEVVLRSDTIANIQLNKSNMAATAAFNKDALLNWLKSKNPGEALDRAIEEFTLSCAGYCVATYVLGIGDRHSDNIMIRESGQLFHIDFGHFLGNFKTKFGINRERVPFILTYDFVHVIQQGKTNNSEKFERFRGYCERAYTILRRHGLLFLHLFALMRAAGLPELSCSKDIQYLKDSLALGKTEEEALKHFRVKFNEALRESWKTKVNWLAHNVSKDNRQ
T1 sequence (P42338 with tags, fused parts or gaps limits assumed): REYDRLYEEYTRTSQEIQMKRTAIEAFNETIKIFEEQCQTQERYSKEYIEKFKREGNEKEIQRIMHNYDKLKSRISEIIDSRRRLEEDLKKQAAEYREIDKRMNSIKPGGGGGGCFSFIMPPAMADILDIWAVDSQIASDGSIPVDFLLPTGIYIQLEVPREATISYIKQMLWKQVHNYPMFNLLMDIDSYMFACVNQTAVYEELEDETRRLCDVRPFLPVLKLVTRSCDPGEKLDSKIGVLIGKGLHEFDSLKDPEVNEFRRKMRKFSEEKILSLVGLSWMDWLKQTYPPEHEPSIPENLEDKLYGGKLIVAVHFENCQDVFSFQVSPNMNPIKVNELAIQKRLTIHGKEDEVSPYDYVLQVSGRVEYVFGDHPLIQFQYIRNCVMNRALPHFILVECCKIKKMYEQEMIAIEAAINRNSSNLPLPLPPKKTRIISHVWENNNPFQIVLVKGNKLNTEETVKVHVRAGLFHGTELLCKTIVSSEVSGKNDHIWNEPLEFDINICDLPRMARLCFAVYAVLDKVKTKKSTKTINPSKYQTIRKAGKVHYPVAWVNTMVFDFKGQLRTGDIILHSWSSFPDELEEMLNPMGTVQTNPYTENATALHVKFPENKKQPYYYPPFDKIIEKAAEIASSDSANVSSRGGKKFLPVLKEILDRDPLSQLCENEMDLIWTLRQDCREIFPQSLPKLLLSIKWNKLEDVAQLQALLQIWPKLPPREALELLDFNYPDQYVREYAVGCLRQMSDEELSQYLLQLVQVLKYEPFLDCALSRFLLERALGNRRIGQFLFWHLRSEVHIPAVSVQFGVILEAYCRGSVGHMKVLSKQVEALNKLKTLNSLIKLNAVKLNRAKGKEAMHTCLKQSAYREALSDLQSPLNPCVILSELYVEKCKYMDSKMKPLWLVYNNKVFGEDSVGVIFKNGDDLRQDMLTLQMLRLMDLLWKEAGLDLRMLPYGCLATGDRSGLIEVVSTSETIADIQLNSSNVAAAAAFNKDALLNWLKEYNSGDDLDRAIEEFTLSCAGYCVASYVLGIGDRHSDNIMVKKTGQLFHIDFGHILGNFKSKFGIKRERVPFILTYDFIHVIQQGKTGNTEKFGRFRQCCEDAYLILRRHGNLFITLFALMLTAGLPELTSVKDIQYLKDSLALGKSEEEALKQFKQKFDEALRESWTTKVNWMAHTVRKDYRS
T3 sequence (P42336 with tags, fused parts or gaps limits assumed): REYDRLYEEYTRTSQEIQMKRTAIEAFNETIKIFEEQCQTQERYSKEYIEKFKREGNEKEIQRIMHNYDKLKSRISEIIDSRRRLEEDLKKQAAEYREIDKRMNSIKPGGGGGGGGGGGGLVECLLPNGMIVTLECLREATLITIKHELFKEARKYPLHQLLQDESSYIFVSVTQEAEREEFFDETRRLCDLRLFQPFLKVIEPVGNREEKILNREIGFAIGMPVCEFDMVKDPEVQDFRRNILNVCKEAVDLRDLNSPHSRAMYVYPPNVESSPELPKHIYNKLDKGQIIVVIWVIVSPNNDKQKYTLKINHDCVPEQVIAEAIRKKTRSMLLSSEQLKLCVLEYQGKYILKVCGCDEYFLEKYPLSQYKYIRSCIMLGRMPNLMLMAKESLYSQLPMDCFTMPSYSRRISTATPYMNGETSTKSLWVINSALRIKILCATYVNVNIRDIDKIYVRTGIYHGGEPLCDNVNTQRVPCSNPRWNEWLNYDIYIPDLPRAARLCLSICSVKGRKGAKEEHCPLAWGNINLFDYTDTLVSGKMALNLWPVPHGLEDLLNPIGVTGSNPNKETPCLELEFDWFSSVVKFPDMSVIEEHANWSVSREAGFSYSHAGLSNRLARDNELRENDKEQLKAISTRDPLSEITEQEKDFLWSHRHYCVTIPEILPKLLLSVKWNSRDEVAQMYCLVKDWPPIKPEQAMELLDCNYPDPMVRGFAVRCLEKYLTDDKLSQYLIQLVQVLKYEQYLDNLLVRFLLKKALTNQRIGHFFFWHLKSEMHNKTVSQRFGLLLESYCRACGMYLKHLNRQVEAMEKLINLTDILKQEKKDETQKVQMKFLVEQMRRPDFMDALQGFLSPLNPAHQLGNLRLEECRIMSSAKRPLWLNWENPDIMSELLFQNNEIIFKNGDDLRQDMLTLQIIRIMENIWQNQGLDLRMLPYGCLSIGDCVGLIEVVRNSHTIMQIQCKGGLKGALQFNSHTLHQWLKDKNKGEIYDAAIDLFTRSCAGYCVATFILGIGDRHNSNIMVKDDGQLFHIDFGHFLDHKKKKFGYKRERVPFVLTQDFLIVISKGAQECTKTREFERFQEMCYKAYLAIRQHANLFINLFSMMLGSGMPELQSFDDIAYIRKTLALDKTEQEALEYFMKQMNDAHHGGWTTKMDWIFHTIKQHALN

With COc1ccc(-c2ccc3ncc4c(c3c2)n(-c2c(C)nn(C)c2C)c(=O)n4C)cn1 [Example 2.4, 8-(6-Methoxy-pyridin-3-yl)-3-methyl-1-(1,3,5-trimethyl-1H-pyrazol-4-yl)-1,3-dihydro-imidazo[4,5-c]quinolin-2-one] the solubility (Solubility at pH 6.8) was 50 µg/mL (≈ 121 µM), the IC50 (PI3K beta) was 120 nM and the IC50 (PI3K delta) was 33 nM. The IC50 (PI3K alpha) was 65 nM.

CCOc1ccc(-c2ccc3ncc4c(c3c2)n(-c2cn(C)nc2C)c(=O)n4C)cn1 [Example 3.1, 1-(1,3-Dimethyl-1H-pyrazol-4-yl)-8-(6-ethoxy-pyridin-3-yl)-3-methyl-1,3-dihydro-imidazo[4,5-c]quinolin-2-one] gave an IC50 [1] of 40 nM, a solubility (Solubility at pH 6.8) of 15 µg/mL (≈ 36.2 µM) and an IC50 (PI3K beta) of 192 nM. It also gave an IC50 (PI3K delta) of 37 nM and an IC50 (PI3K alpha) of 21 nM.

CCOc1ccc(-c2ccc3ncc4c(c3c2)n(-c2cn(CC(=O)N3CCOCC3)nc2C)c(=O)n4C)cn1 [Example 3.10, 8-(6-Ethoxy-pyridin-3-yl)-3-methyl-1-[3-methyl-1-(2-morpholin-4-yl-2-oxo-ethyl)-1H-pyrazol-4-yl]-1,3-dihydro-imidazo[4,5-c]quinolin-2-one] showed an IC50 [1] of 10 nM, a solubility (Solubility at pH 6.8) of 26 µg/mL (≈ 49.3 µM) and an IC50 (PI3K delta) of 431 nM. For the same compound, the IC50 (PI3K alpha) was 91 nM.

In the case of CCOc1ccc(-c2ccc3ncc4c(c3c2)n(-c2c(C)nn(CC(=O)N(C)C)c2C)c(=O)n4C)cn1 [Example 3.12, 2-{4-[8-(6-Ethoxy-pyridin-3-yl)-3-methyl-2-oxo-2,3-dihydro-imidazo[4,5-c]quinolin-1-yl]-3,5-dimethyl-pyrazol-1-yl}-N,N-dimethyl-acetamide], the IC50 [1] is reported as 175 nM, the solubility (Solubility at pH 6.8) is reported as > 500 µg/mL and the IC50 (PI3K delta) is reported as 721 nM. It also gave an IC50 (PI3K alpha) of 57 nM.

Work on CCn1cc(-n2c(=O)n(C)c3cnc4ccc(-c5ccc(N(C)C)nc5)cc4c32)c(C)n1 [Example 4.2, 8-(6-Dimethylamino-pyridin-3-yl)-1-(1-ethyl-3-methyl-1H-pyrazol-4-yl)-3-methyl-1,3-dihydro-imidazo[4,5-c]quinolin-2-one] yielded an IC50 [1] of 7 nM, a solubility (Solubility at pH 6.8) of 7 µg/mL (≈ 16.4 µM) and an IC50 (PI3K beta) of 225 nM. The IC50 (PI3K delta) was 6 nM and the IC50 (PI3K alpha) was 15 nM.

Compound Cc1nn(C)c(C)c1-n1c(=O)n(C)c2cnc3ccc(-c4ccc(N(C)C)nc4)cc3c21 [Example 4.3, 8-(6-Dimethylamino-pyridin-3-yl)-3-methyl-1-(1,3,5-trimethyl-1H-pyrazol-4-yl)-1,3-dihydro-imidazo[4,5-c]quinolin-2-one] has a solubility (Solubility at pH 6.8) of 71 µg/mL (≈ 166 µM), an IC50 (PI3K beta) of 382 nM and an IC50 (PI3K delta) of 98 nM. The IC50 (PI3K alpha) was 99 nM.

For Cc1nn(C(C)C)cc1-n1c(=O)n(C)c2cnc3ccc(-c4ccc(N5CCC5)nc4)cc3c21 [Example 5.2, 8-(6-Azetidin-1-yl-pyridin-3-yl)-1-(1-isopropyl-3-methyl-1H-pyrazol-4-yl)-3-methyl-1,3-dihydro-imidazo[4,5-c]quinolin-2-one], the IC50 [1] was 5 nM, the solubility (Solubility at pH 6.8) was 7 µg/mL (≈ 15.4 µM) and the IC50 (PI3K delta) was 53 nM. For the same compound, the IC50 (PI3K alpha) was 34 nM.

With Cc1nn(C)cc1-n1c(=O)n(C)c2cnc3ccc(-c4cnc(N(C)C)nc4)cc3c21 [Example 6.2, 8-(2-Dimethylamino-pyrimidin-5-yl)-1-(1,3-dimethyl-1H-pyrazol-4-yl)-3-methyl-1,3-dihydro-imidazo[4,5-c]quinolin-2-one] the IC50 [1] was 8 nM, the solubility (Solubility at pH 6.8) was 41 µg/mL (≈ 98.9 µM) and the IC50 (PI3K beta) was 185 nM. It also gave an IC50 (PI3K delta) of 32 nM and an IC50 (PI3K alpha) of 22 nM.

Cc1ccc(-c2ccc3ncc4c(c3c2)n(-c2cn(C)nc2C)c(=O)n4C)cn1 [Example 7.2, 1-(1,3-Dimethyl-1H-pyrazol-4-yl)-3-methyl-8-(6-methyl-pyridin-3-yl)-1,3-dihydro-imidazo[4,5-c]quinolin-2-one] gave an IC50 [1] of 13.5 nM, a solubility (Solubility at pH 6.8) of 9 µg/mL (≈ 23.4 µM) and an IC50 (PI3K beta) of 66 nM. It also gave an IC50 (PI3K delta) of 13 nM and an IC50 (PI3K alpha) of 14 nM.

Compound Cc1cc(-n2c(=O)n(C)c3cnc4ccc(-c5ccc(C(F)(F)F)nc5)cc4c32)n(C)n1 [Example 8.2, 1-(2,5-Dimethyl-2H-pyrazol-3-yl)-3-methyl-8-(6-trifluoromethyl-pyridin-3-yl)-1,3-dihydro-imidazo[4,5-c]quinolin-2-one] has a solubility (Solubility at pH 6.8) of 4 µg/mL (≈ 9.12 µM), an IC50 (PI3K beta) of 387 nM and an IC50 (PI3K delta) of 120 nM. For the same compound, the IC50 (PI3K alpha) was 95 nM.

For COc1cncc(-c2ccc3ncc4c(c3c2)n(-c2cn(C)nc2C)c(=O)n4C)c1 [Example 12, 1-(1,3-Dimethyl-1H-pyrazol-4-yl)-8-(5-methoxy-pyridin-3-yl)-3-methyl-1,3-dihydro-imidazo[4,5-c]quinolin-2-one], the IC50 [1] was 7 nM, the solubility (Solubility at pH 6.8) was 39 µg/mL (≈ 97.4 µM) and the IC50 (PI3K beta) was 21 nM. For the same compound, the IC50 (PI3K delta) was 31 nM and the IC50 (PI3K alpha) was 8 nM.

Work on CCOc1ccc(-c2ccc3ncc4c(c3c2)n(-c2c(C)nn(C)c2C)c(=O)n4C)cc1OC [Example 29.2, 8-(4-Ethoxy-3-methoxy-phenyl)-3-methyl-1-(1,3,5-trimethyl-1H-pyrazol-4-yl)-1,3-dihydro-midazo[4,5-c]quinolin-2-one] yielded a solubility (Solubility at pH 6.8) of 7 µg/mL (≈ 15.3 µM), an IC50 (PI3K beta) of 167 nM and an IC50 (PI3K delta) of 56 nM. The IC50 (PI3K alpha) was 38 nM.

For Cc1nn(CC(=O)N(C)C)cc1-n1c(=O)n(C)c2cnc3ccc(-c4ccc(-n5cccn5)cc4)cc3c21 [Example 51.2, N,N-Dimethyl-2-{3-methyl-4-[3-methyl-2-oxo-8-(4-pyrazol-1-yl-phenyl)-2,3-dihydro-imidazo[4,5-c]quinolin-1-yl]-pyrazol-1-yl}-acetamide], the IC50 [1] was 1 nM, the solubility (Solubility at pH 6.8) was 4 µg/mL (≈ 7.9 µM) and the IC50 (PI3K delta) was 453 nM. The IC50 (PI3K alpha) was 8 nM.

Work on COCCn1c(=O)n(C)c2ncc(-c3ccc4ncc5c(c4c3)n(-c3cn(C)nc3C)c(=O)n5C)cc21 [Example 69, 1-(1,3-Dimethyl-1H-pyrazol-4-yl)-8-[1-(2-methoxy-ethyl)-3-methyl-2-oxo-2,3-dihydro-1H-imidazo[4,5-b]pyridin-6-yl]-3-methyl-1,3-dihydro-imidazo[4,5-c]quinolin-2-one] yielded a solubility (Solubility at pH 6.8) of 3 µg/mL (≈ 6.02 µM), an IC50 (PI3K beta) of 129 nM and an IC50 (PI3K delta) of 36 nM. The IC50 (PI3K alpha) was 39 nM.

Cc1nn(C)cc1-n1c(=O)n(C)c2cnc3ccc(-c4cnc5c(c4)nc(N(C)C)n5C)cc3c21 [Example 70, 8-(2-Dimethylamino-3-methyl-3H-imidazo[4,5-b]pyridin-6-yl)-1-(1,3-dimethyl-1H-pyrazol-4-yl)-3-methyl-1,3-dihydro-imidazo[4,5-c]quinolin-2-one] showed an IC50 [1] of 16 nM, a solubility (Solubility at pH 6.8) of 47 µg/mL (≈ 101 µM) and an IC50 (PI3K delta) of 163 nM. The IC50 (PI3K alpha) was 375 nM.

Compound CCOc1ccc(-c2ccc3ncc4c(c3c2)n(-c2cn(CC(=O)N(C)CC)nc2C)c(=O)n4C)cn1 [Example 136, 2-{4-[8-(6-Ethoxy-pyridin-3-yl)-3-methyl-2-oxo-2,3-dihydro-imidazo[4,5-c]quinolin-1-yl]-3-methyl-pyrazol-1-yl}-N-ethyl-N-methyl-acetamide] has an IC50 [1] of 3 nM, a solubility (Solubility at pH 6.8) of 141 µg/mL (≈ 282 µM) and an IC50 (PI3K delta) of 214 nM. For the same compound, the IC50 (PI3K alpha) was 25 nM.

With COCCN(C)C(=O)Cn1cc(-n2c(=O)n(C)c3cnc4ccc(-c5ccccc5)cc4c32)c(C)n1 [Example 137, N-(2-Methoxy-ethyl)-N-methyl-2-[3-methyl-4-(3-methyl-2-oxo-8-phenyl-2,3-dihydro-imidazo[4,5-c]quinolin-1-yl)-pyrazol-1-yl]-acetamide] the IC50 [1] was 9 nM, the solubility (Solubility at pH 6.8) was 427 µg/mL (≈ 881 µM) and the IC50 (PI3K delta) was 922 nM. For the same compound, the IC50 (PI3K alpha) was 161 nM.

For CCN(CC)C(=O)Cn1cc(-n2c(=O)n(C)c3cnc4ccc(-c5ccc(C)nc5)cc4c32)c(C)n1 [Example 139, N,N-Diethyl-2-{3-methyl-4-[3-methyl-8-(6-methyl-pyridin-3-yl)-2-oxo-2,3-dihydro-imidazo[4,5-c]quinolin-1-yl]-pyrazol-1-yl}-acetamide], the IC50 [1] was 4 nM, the solubility (Solubility at pH 6.8) was > 484 µg/mL and the IC50 (PI3K delta) was 69 nM. It also gave an IC50 (PI3K alpha) of 17 nM.

For CCc1ncc(-c2ccc3ncc4c(c3c2)n(-c2cn(C)nc2C)c(=O)n4C)cc1NC(C)C [Example 162, 1-(1,3-Dimethyl-1H-pyrazol-4-yl)-8-(6-ethyl-5-isopropylamino-pyridin-3-yl)-3-methyl-1,3-dihydro-imidazo[4,5-c]quinolin-2-one], the solubility (Solubility at pH 6.8) was > 456 µg/mL, the IC50 (PI3K beta) was 20 nM and the IC50 (PI3K delta) was 10 nM. For the same compound, the IC50 (PI3K alpha) was 8 nM.

For Cc1nn(C)cc1-n1c(=O)n(C)c2cnc3ccc(-c4ccc(N5CC[C@@H](O)C5)nc4)cc3c21 [Example 212.1, 1-(1,3-Dimethyl-1H-pyrazol-4-yl)-8-[6-((R)-3-hydroxy-pyrrolidin-1-yl)-pyridin-3-yl]-3-methyl-1,3-dihydro-imidazo[4,5-c]quinolin-2-one], the IC50 [1] was 7 nM, the solubility (Solubility at pH 6.8) was 55 µg/mL (≈ 121 µM) and the IC50 (PI3K delta) was 111 nM. The IC50 (PI3K alpha) was 53 nM.

— patent US20140005163A1 (NOVARTIS AG, priority 2010, published 2014)
